Laboratory results as given in BindingDB's records for doi:10.7270/Q24T6GTZ (Burnham Center For Chemical Genomics, 2010).

Target: Kappa-type opioid receptor (Homo sapiens, UniProt P41145)
Assay: kappa opioid receptor activation potency – imaging, image-based, SAR follow-up (AID 2359)

Chain of Kappa-type opioid receptor (P41145 whole entry): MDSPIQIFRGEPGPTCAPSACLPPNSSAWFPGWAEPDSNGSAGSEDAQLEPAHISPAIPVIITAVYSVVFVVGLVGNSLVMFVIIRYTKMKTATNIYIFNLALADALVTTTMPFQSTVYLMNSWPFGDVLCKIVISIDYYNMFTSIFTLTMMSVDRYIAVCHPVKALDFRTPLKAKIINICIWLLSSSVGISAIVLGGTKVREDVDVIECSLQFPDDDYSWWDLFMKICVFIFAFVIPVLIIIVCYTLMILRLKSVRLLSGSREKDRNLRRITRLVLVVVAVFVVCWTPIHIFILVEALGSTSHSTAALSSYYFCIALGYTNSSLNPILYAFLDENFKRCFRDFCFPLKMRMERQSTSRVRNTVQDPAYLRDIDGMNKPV

Row | EC50 | SMILES
1 | > 32 µM | Oc1ccc(CN=Nc2ccnc3cc(Cl)ccc23)cc1O [(4Z)-4-[[2-(7-chloroquinolin-4-yl)hydrazinyl]methylidene]-2-hydroxycyclohexa-2,5-dien-1-one]
2 | > 32 µM | CCC(N=Nc1ccnc2cc(Cl)ccc12)c1ccc(O)cc1 (configuration not stated) [4-[1-[2-(7-chloroquinolin-4-yl)hydrazinyl]propylidene]cyclohexa-2,5-dien-1-one]
